The values that follow are results of earlier work, collected in US20060182790A1, “Dermal medicaments application enhancer” (priority 2005, published 2006).

`Cl.NCC(=O)CCC(=O)O` [ALA HCl, 5-amino-4-oxopentanoic acid hydrochloride]: the solubility in chloroform entry (chloroform) was “practically insoluble”. For the setting “ethanol”, the solubility in ethanol entry was “slightly soluble”. Where the note is “hexane”, the solubility in hexane entry is given as “practically insoluble”. The solubility in methanol entry (methanol) is “slightly soluble”. For the same compound, where the note is “mineral oil”, the “solubility in mineral oil” value is “practically insoluble”. Further, the solubility in water result (water) is given as “very soluble”.
